Experimental data from ChEMBL document CHEMBL1201862, “PubChem BioAssay data set” (2004).
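Cultured in 96-well plates, cells were exposed to test compound for 48 hours across five concentrations. Abbreviation: GI50, concentration required for 50% inhibition of growth.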 Activity calls are given as the source filed them. No stated cut-off is given here; in the data, active = GI50 up to about 1.1 µM and inactive = higher.

Assays:
Test in all cases: inhibition of tumour cell growth, NCI panel, 48 h
NCI-H226 = tested on: NCI-H226
CAKI-1 = tested on: CAKI-1
A549 = tested on: A549
SF-539 = tested on: SF-539
HOP-62 = tested on: HOP-62
NCI-H460 = tested on: NCI-H460
COLO 205 = tested on: COLO 205
HT-29 = tested on: HT-29
DMS-114 = tested on: DMS-114
DMS-273 = tested on: DMS-273
HCC 2998 = tested on: HCC 2998
MOLT-4 = tested on: MOLT-4
ACHN = tested on: ACHN
SW-620 = tested on: SW-620
SN12C = tested on: SN12C

Measured: GI50

CC(=O)c1ccc(NC(=O)/C(Cc2ccccn2)=N/NC(=O)C[N+](C)(C)C)cc1
inactive: NCI-H226 > 100 µM | CAKI-1 > 100 µM | A549 > 100 µM | SF-539 > 100 µM | HOP-62 > 100 µM | NCI-H460 > 100 µM | COLO 205 > 100 µM | HT-29 > 100 µM | DMS-114 > 100 µM | DMS-273 > 100 µM | HCC 2998 > 100 µM | MOLT-4 > 100 µM | ACHN > 100 µM | SW-620 > 100 µM | SN12C > 100 µM

CCc1cccc(C(C)C)c1NC(=O)/C(=N\NC(N)=O)C(C(=O)OC)c1cnc2ccccc2n1 (stereo not drawn)
inactive: NCI-H226 50.5 µM | CAKI-1 > 100 µM | A549 24.8 µM | SF-539 52.7 µM | HOP-62 40.6 µM | NCI-H460 31.6 µM | COLO 205 20.9 µM | HT-29 35.8 µM | DMS-114 24.9 µM | DMS-273 31.6 µM | HCC 2998 40.6 µM | MOLT-4 32.9 µM | ACHN 62.7 µM | SW-620 39.5 µM | SN12C 35 µM

O=C(c1ccccc1)c1ccc2cccc(O)c2n1
inactive: NCI-H226 38.5 µM | CAKI-1 76.4 µM | A549 33 µM | SF-539 32.6 µM | HOP-62 52.4 µM | COLO 205 37.5 µM | DMS-114 10.9 µM | DMS-273 28.4 µM | HCC 2998 40.1 µM | MOLT-4 5.27 µM | ACHN 37.5 µM | SW-620 13.5 µM | SN12C 38.8 µM

Clc1ccc(Cc2nc3ccccc3s2)c(Cl)c1
inactive: NCI-H226 20.4 µM | CAKI-1 17.4 µM | A549 19.7 µM | SF-539 3.65 µM | HOP-62 18.3 µM | NCI-H460 19.8 µM | COLO 205 17 µM | HT-29 20.6 µM | DMS-114 17 µM | DMS-273 18 µM | HCC 2998 18.6 µM | MOLT-4 14.3 µM | ACHN 17.5 µM | SW-620 21.8 µM | SN12C 16.5 µM

O=C(Cc1nc2ccccc2s1)Nc1cccc(C(F)(F)F)c1
inactive: NCI-H226 21.8 µM | CAKI-1 16.7 µM | A549 21 µM | SF-539 18.8 µM | HOP-62 17.9 µM | NCI-H460 15.8 µM | COLO 205 17 µM | HT-29 17.1 µM | DMS-114 15.6 µM | DMS-273 18.7 µM | HCC 2998 15.6 µM | MOLT-4 6.89 µM | ACHN 13.6 µM | SW-620 19.2 µM | SN12C 16.1 µM
